pEC50, pIC50: −log10 of the molar value. Like-named read-outs stand apart in the source and are kept apart here.
Legend:
Type in all cases: cell-based
MRGPRX2 [1] = molecular target: T1, MRGPRX2 (Homo sapiens, UniProt Q96LB1); test: Ca2+ mobilization assay (FLIPR TETRA) in HEK293-MRGPRX2/Gα15 cells; parameters: expressed in transfected cells; settings: for pEC50: agonist mode, highest concentration tested 30 μM, read-out: Activation of Ca2+ Mobilization EC50
T1 sequence (Q96LB1 1-330): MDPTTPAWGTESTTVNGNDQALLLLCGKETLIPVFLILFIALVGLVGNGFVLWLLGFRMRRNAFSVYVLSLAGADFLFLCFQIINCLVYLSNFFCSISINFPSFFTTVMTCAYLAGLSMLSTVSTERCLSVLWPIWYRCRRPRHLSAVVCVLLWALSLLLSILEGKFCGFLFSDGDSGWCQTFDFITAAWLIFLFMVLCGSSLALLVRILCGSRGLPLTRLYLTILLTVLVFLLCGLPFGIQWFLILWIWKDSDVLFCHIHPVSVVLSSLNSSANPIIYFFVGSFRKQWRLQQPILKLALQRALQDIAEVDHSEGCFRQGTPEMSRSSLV
Method: A Ca^2+ mobilization assay was used to screen for small-molecule compounds with agonist or antagonist activity against human MRGPRX2 using HEK293-MRGPRX2/Gα15 cells. Two million small-molecule compounds in GSK collection were screened at single concentration of 10 μM on FLIPR^TETRA (Molecular Devices) instruments in dual detection mode for both activation and inhibition activities. Cortistatin 14 at approximately EC80 concentration was used as the activation ligand for the inhibition phase of the high-throughput screening. Compounds of interest were followed up and characterized in concentration response curves to determine their mode of activity, potency, and selectivity.
Figure 1 Identification of two structurally distinct MRGPRX2 antagonists: Compound (A) and Compound (B). Calcium mobilization assays were performed in FLIPR^TETRA (Molecular Devices) with two novel MRGPRX2 antagonists using HEK293 cells overexpressing MRGPRX2 and Gα15 proteins. […] Dose-dependent inhibition (A) of Cortistatin 14–mediated MRGPRX2 activation was measured, and antagonist potencies (B) are presented as mean ± SEM of 66 or 22 independent experiments for Compound A and Compound B, respectively.

MRGPRX2 [2] = molecular target: T1, MRGPRX2; test: Calcium mobilization (FLIPR TETRA) in BacMam-transduced U2OS cells; parameters: expressed in transfected cells; host or cells: U2OS transduced with BacMam virus; Agonist activity: dose or concentration left out as unconfirmed; settings: for Agonist activity: up to the highest concentration tested
Method: Cell culture reagents were purchased from Thermo Fisher Scientific unless otherwise stated. The LAD2 human mast cell line was in-licensed from National Institutes of Health (NIH) and routinely cultured in StemPro™-34 SFM with nutrient supplement, 1× GlutaMax™, and recombinant human SCF (100 ng/mL). HEK293-MRGPRX2/Gα15 cells were cultured in DMEM containing 10% FBS. The parental U2OS cells were culture in DMEM/F-12 containing 10% FBS. BacMam virus containing human MRGPRX2 gene or animal orthologs [mouse Mrgprb2 (Gene ID: 243979), rat Mrgprb3 (Gene ID: 691194), dog MRGPRX2 (Gene ID: 102125889), cynomolgus monkey MRGPRX2 (Gene ID: 692078), and rhesus monkey MRGPRX2] were used to transduce U2OS cells for transient expression.
Supplemental Table 1: Compound A and Compound B are human MRGPRX2 selective antagonists. Antagonist and agonist activities of the two compounds were determined in calcium mobilization assays for human MRGPRX2 and its animal orthologs from various species. The activities were measured in […] (Molecular Devices) instrument using U2OS cells transduced with BacMam virus for transient expression of the relevant receptors. Data are presented as mean ± SEM when applicable.
Compound A and Compound B up to the highest concentration (100 µM) tested. In the antagonist […]
Compound A and B, respectively. […]

5-HT2C receptor (HTR2C) = molecular target: T2, 5-HT2C receptor (HTR2C) (Homo sapiens, UniProt P28335); test: GPCR selectivity cellular assay; settings: for pEC50: Agonism, read-out: Agonist Activity (EC50); for pIC50: Antagonism, read-out: Antagonist Activity (IC50)
T2 sequence (P28335 33-458): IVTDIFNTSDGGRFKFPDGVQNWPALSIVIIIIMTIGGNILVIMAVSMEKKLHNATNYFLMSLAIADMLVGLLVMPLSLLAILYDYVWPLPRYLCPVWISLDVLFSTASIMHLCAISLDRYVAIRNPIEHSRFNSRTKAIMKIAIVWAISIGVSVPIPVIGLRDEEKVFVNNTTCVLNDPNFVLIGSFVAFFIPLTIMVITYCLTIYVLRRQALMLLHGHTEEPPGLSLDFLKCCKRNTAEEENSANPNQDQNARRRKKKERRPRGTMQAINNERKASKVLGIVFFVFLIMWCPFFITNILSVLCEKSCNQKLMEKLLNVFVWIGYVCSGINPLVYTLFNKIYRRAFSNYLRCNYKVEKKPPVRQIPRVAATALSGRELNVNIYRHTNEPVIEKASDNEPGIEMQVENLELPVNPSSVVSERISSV
Method: (§1) tagonists, with little activity detected on other GPCRs. Antagonist and/or agonist activities of the two compounds were determined in cellular assays for 20 human G-protein coupled receptors (GPCR) beside MRGPRX2. Recombinant over-expression systems in mammalian cells were used for all assays listed in this table. […]
(§2) reported as ‘>’ the highest compound concentration allowed in that assay.
(§3) GPCR Target Name Gene symbol Mode of Activity Compound-A Compound-B […]
(§4) Agonist Activity (EC50 ) or Antagonist Activity (IC50 ), nM […]

k-Receptor (OPRK1) = k-Receptor (OPRK1) (Homo sapiens, UniProt P41145); test: GPCR selectivity cellular assay
Chain of k-Receptor (OPRK1) (P41145 whole entry): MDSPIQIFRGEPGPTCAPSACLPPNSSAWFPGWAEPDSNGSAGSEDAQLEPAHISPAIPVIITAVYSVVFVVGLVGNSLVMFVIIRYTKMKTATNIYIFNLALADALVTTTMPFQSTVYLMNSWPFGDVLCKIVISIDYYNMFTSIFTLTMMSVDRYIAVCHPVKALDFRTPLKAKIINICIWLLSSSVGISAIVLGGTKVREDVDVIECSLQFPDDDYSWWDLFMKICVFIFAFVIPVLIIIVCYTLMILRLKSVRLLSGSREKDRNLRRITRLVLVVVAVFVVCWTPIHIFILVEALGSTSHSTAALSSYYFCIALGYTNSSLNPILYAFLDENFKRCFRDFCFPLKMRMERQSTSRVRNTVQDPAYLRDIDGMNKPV
Method: as §1, §2, §3, §4

[3] = molecular target: T3, a1B-Adrenoreceptor (ADRA1B) (Homo sapiens, UniProt P35368); test: GPCR selectivity cellular assay; settings: Antagonism; read-out: Antagonist Activity (IC50)
T3 construct: expressed in transfected cells
T3 sequence (P35368 whole entry): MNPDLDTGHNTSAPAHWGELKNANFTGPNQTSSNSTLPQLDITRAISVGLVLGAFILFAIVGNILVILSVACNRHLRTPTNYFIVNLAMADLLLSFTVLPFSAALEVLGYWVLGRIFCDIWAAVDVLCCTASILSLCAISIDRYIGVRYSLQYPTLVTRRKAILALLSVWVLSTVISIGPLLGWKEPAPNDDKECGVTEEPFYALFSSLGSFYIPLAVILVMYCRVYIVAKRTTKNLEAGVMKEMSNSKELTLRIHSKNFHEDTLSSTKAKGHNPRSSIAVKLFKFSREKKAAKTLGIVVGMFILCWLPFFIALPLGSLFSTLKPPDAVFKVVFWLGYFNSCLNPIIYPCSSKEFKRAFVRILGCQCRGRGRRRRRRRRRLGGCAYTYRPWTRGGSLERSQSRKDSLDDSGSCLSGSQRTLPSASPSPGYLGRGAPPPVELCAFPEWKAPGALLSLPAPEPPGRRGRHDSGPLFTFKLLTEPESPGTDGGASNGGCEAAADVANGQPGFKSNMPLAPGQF
Method: as §1, §2, §3, §4

NK1 receptor (TACR1) = NK1 receptor (TACR1) (Homo sapiens, UniProt P25103); test: GPCR selectivity cellular assay; settings: Antagonism; read-out: Antagonist Activity (IC50)
Chain of NK1 receptor (TACR1) (P25103 whole entry): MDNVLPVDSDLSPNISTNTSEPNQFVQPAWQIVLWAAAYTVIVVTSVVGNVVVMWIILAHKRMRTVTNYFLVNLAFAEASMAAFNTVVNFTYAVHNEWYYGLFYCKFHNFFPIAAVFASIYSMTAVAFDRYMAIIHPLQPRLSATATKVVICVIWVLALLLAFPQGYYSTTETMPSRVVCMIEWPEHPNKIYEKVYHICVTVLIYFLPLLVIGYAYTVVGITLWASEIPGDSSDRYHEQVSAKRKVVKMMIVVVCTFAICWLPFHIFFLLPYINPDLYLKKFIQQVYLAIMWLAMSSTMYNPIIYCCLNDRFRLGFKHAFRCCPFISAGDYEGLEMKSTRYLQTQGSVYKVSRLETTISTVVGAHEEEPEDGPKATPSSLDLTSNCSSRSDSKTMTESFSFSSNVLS
Method: as §1, §2, §3, §4

H1 receptor (HRH1) = molecular target: T4, H1 receptor (HRH1) (Homo sapiens, UniProt P35367); test: GPCR selectivity cellular assay; settings: Antagonism; read-out: Antagonist Activity (IC50)
T4 construct: expressed in transfected cells
T4 sequence (P35367 whole entry): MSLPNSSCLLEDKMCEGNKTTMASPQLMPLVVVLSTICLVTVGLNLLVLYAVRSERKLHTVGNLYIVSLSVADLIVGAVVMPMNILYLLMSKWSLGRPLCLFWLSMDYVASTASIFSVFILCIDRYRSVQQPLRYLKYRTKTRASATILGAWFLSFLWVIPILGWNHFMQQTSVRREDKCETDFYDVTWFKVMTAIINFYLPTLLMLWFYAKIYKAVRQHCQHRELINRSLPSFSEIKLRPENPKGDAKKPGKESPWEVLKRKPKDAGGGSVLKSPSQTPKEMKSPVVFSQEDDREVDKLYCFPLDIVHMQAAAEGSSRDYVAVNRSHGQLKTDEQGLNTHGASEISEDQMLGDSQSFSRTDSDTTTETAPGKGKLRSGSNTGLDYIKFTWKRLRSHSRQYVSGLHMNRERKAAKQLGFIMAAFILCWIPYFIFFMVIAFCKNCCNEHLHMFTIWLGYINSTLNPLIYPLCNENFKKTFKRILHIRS
Method: as §1, §2, §3, §4

CB1 receptor (CNR1) = molecular target: T5, CB1 receptor (CNR1) (Homo sapiens, UniProt P21554); test: GPCR selectivity cellular assay
T5 construct: expressed in transfected cells
T5 sequence (P21554 whole entry): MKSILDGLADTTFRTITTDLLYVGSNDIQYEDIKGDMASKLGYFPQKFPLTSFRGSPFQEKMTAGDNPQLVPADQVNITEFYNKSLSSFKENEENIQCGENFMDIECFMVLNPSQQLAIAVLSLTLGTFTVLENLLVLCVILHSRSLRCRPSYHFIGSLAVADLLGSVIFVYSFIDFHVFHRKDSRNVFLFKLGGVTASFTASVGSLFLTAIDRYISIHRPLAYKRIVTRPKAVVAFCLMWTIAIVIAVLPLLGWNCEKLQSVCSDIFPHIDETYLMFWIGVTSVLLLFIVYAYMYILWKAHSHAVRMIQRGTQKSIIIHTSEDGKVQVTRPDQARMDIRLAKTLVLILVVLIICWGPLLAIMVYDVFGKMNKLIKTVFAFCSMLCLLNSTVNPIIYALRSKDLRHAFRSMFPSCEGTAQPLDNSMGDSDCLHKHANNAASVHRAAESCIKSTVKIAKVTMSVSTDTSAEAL
Method: as §1, §2, §3, §4

5-HT2A receptor (HTR2A) = 5-HT2A receptor (HTR2A) (Homo sapiens, UniProt P28223); test: GPCR selectivity cellular assay
Chain of 5-HT2A receptor (HTR2A) (P28223 whole entry): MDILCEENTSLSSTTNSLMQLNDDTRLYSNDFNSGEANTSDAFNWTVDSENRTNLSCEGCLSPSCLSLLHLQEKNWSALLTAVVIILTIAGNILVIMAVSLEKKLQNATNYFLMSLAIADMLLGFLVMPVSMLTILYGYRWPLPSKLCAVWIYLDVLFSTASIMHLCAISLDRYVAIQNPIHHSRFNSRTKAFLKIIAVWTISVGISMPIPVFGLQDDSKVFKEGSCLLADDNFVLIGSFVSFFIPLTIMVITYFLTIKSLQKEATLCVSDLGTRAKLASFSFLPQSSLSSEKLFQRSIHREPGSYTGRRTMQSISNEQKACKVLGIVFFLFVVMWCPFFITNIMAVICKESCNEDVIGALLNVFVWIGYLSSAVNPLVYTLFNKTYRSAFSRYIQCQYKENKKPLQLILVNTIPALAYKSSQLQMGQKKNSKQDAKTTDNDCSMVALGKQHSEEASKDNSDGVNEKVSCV
Method: as §1, §2, §3, §4

V1A receptor (AVPR1A) = molecular target: T6, V1A receptor (AVPR1A) (Homo sapiens, UniProt P37288); test: GPCR selectivity cellular assay; settings: Antagonism; read-out: Antagonist Activity (IC50)
T6 construct: expressed in transfected cells
T6 sequence (P37288 whole entry): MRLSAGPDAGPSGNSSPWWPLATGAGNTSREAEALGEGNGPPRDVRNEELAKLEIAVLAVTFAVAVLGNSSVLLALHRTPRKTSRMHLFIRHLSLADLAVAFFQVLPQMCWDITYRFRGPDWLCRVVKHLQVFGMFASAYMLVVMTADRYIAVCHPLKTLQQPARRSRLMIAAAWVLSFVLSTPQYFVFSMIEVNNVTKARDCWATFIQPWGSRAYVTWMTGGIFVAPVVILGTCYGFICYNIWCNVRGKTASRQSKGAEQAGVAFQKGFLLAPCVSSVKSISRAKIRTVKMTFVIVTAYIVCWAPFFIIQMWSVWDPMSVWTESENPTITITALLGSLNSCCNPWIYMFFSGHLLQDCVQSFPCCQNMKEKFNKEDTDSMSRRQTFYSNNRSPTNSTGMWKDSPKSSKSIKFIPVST
Method: as §1, §2, §3, §4

[4] = Agonism, read-out: Agonist Activity (EC50)

SMILES	pIC50 (MRGPRX2 [1])	pEC50 (MRGPRX2 [1])	pIC50 (MRGPRX2 [2])	Agonist activity (MRGPRX2 [2])	pEC50 (5-HT2C receptor (HTR2C))	pIC50 (5-HT2C receptor (HTR2C))	pEC50 (k-Receptor (OPRK1))	pIC50 [3]	pIC50 (NK1 receptor (TACR1))	pIC50 (H1 receptor (HRH1))	pEC50 (CB1 receptor (CNR1))	pEC50 (5-HT2A receptor (HTR2A))	pIC50 (5-HT2A receptor (HTR2A))	pIC50 (V1A receptor (AVPR1A))	pIC50 (MRGPRX2 [1]; Cortistatin 14 at approx. EC80, mean ± SEM of 66 (Compound A) or 22 (Compound B) experiments, read-out: Inhibition of Cort-14 Mediated MRGPRX2 Activation IC50)	pIC50 (MRGPRX2 [2]; Cortistatin 14 at approx. EC80, U2OS cells, read-out: Antagonist IC50 against Cortistatin 14)	pEC50 (k-Receptor (OPRK1); [4])	pEC50 (CB1 receptor (CNR1); [4])	pEC50 (5-HT2A receptor (HTR2A); [4])	pIC50 (5-HT2A receptor (HTR2A); Antagonism, read-out: Antagonist Activity (IC50))
CC1(C)C(C(=O)Nc2ccccn2)C1(C)C [Compound A]	7.30	< 4.52	7.35	No agonist activity was detected	< 4.00	< 4.00	< 4.00	< 4.60	< 4.60	< 4.60	< 4.60	< 4.00	4.38	< 4.30						
C[C@@H](C(=O)Nc1cnc(Oc2ccc(F)cc2F)cn1)N1CCC(F)(F)[C@@H](c2cc[n+]([O-])cc2)C1 [Compound B]		< 4.52		No agonist activity was detected	< 4.00	< 4.30		< 4.60	< 4.60	< 4.60				< 4.30	8.54	8.44	< 4.00	< 4.60	< 4.00	< 4.00
